SMILES strings stand for the structures.

The target of data set [1] is ATX (Homo sapiens, UniProt Q13822). In words: Selectivity panel (Table 3). In kind it is biochemical.
The target in data set [2] is HDAC3 (Homo sapiens, UniProt O15379). Nature of the data set: Selectivity panel (Table 3). In kind it is biochemical.
Data set [3] deals with HDAC8 (Homo sapiens, UniProt Q9BY41). In words: Selectivity panel (Table 3). In kind it is biochemical.
The target in data set [4] is SHP2 D61G (Homo sapiens, UniProt Q06124, D61G). In words: Selectivity panel (Table 3). The format is biochemical.
Chain of SHP2 D61G (Q06124 whole entry D61G): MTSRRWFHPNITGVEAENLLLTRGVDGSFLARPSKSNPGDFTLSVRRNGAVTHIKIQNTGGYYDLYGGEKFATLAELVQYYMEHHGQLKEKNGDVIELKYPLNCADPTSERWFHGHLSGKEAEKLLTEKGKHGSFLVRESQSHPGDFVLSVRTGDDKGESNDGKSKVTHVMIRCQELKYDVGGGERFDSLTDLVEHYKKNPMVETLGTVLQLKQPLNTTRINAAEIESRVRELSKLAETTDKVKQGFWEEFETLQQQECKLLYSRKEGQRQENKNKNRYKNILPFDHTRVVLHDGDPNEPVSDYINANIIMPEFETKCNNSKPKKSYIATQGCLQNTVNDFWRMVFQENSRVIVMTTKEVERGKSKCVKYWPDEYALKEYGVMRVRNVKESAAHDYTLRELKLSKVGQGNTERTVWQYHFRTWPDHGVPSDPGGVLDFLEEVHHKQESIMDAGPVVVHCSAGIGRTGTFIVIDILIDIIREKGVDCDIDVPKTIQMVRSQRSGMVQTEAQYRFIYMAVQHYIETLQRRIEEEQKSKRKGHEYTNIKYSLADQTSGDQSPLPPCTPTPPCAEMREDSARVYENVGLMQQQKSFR
Data set [5] deals with TEAD3 (Homo sapiens, UniProt Q99594). In words: Selectivity panel (Table 3). In kind it is binding.
Chain of TEAD3 (Q99594 whole entry, species assumed): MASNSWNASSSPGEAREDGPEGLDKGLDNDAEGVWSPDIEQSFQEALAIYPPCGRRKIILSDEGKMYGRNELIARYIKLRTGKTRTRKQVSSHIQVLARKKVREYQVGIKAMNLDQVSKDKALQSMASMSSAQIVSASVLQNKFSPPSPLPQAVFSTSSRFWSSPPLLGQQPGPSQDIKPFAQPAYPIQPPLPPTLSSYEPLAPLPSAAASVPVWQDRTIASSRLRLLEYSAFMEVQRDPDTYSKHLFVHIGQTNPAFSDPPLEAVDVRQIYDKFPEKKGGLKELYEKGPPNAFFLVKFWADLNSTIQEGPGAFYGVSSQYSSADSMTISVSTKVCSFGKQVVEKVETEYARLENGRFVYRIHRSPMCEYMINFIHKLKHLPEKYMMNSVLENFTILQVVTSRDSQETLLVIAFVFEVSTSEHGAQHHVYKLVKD
A short description of data set [6]: Mouse PK (oral). The settings on record: for Cmax: plasma; for AUC(0-t) / half-life: C57/B16, plasma. In kind it is in vivo, C57/B16 mice. How it is done: Mouse PK: Animals were dosed with a single intravenous bolus or oral gavage administration in naïve C57/B16 mice (Beijing Vital River Laboratory Animal Co., LTD). Blood samples were collected at the respective sampling time points. The quantification of compound concentrations in mouse or rat plasma was quantified using LC-MS/MS method. Plasma concentration versus time data was analyzed by non-compartmental mode approaches using the WinNonlin software program (version 6.3 or above, Pharsight). Pharmacokinetic parameters, including C0 (initial concentration after drug administration), […], Vdss (volume of distribution), Cmax (maximum peak concentration of the drug), Tmax (time required to reach Cmax) T1/2 (time required for drug concentration to decrease by 50% after administration), AUC0-last (area under the concentration-time curve from dosing time t=0 to the time of the last measured concentration), AUC0-inf (total drug exposure across time), MRT0-last (mean residence time from dosing time t=0 to the time of the last measured concentration), MRT0-inf f (mean residence time of total drug exposure), bioavailability (%) (the percentage (or the fraction F) of an administered drug dose that reaches the systemic circulation) for IV and PO groups were calculated. See Table 7 and FIGS. 6A, 6B, 6C and 6D.

Data set [7] is described as follows: Liver S9 stability assay. The format is in vitro ADME, dog. How it is done: Liver S9 stability assay: Test compounds (1 μM) and positive control were incubated with 5 mM GSH and liver S9 (1 mg protein/ml) from multiple species (including human, monkey, dog, rat and mouse) at 37° C. at 0, 10, 30, and 60 minutes in duplicate. After adding the stop solution, 100 μL of supernatant were analyzed by LC-MS/MS. The % remaining of test compound, T1/2 (min), and CLint (μL/min/mg) were calculated and were reported.

The nature of data set [8]: Metabolite ID in Liver S9. The format is in vitro ADME. The settings on record: HBI-2375 and metabolites in Human liver S9.
The nature of data set [9]: in vitro. The following applies: human, plasma.
Data set [10] in a line: in vitro. The settings on record: rat, plasma.
The nature of data set [11]: in vitro. The following applies: mouse, plasma.

Chain of HDAC3 (O15379 whole entry, species assumed): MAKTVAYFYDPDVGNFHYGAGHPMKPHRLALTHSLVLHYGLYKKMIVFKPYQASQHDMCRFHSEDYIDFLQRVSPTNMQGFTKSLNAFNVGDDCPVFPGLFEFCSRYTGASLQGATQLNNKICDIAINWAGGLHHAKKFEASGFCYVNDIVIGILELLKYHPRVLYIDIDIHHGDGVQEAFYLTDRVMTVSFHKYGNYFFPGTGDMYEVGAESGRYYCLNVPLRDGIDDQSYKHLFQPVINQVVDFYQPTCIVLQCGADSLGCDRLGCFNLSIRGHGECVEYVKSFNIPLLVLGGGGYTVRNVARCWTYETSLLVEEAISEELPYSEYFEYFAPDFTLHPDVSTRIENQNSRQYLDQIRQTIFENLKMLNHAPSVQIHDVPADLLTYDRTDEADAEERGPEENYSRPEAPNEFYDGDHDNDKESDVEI
Chain of HDAC3 (Q9Y618 395-489 partner limits assumed, species assumed): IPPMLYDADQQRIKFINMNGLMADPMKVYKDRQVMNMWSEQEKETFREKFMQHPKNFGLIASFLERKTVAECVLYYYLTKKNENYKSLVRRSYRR
Chain of HDAC8 (Q9BY41 whole entry, species assumed): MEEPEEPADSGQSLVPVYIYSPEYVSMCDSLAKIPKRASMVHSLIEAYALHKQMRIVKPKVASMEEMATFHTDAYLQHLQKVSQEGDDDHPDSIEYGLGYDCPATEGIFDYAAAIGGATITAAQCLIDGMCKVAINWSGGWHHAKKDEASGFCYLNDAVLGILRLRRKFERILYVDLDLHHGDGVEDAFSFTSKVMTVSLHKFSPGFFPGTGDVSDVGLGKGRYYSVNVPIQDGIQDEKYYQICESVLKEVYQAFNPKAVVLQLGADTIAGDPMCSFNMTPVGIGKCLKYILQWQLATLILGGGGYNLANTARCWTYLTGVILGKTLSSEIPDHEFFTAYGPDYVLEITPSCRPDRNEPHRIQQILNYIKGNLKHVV

A word on the IC50: it is the concentration needed to halve the response being measured. Low readings indicate greater potency, high ones weaker potency. The term Cmax denotes the peak of the concentration-time curve. In general, AUC(0-t) refers to exposure summed from dosing to a finite time, without extrapolation to infinity. Low readings indicate low exposure, high ones high exposure. What is called half-life is how long it takes for the measured level to halve. A low value points to rapid decline. For orientation: microsomal CLint means a measure of how fast metabolising enzymes remove a compound, apart from limits set by blood flow. The fraction unbound is free concentration divided by total concentration. Read a low fraction unbound as extensive binding. As to `Cc1c(F)c(N)cc(C(=O)Nc2cc(-n3cc(C(=O)N4CCN(C)CC4)nn3)c(F)cc2N2C[C@@H](C)N(C)[C@@H](C)C2)c1Cl` [HYBI-084, 5-amino-2-chloro-4-fluoro-N-(4-fluoro-5-(4-(4-methylpiperazine-1-carbonyl)-1H-1,2,3-triazol-1-yl)-2-((3S,5R)-3,4,5-trimethylpiperazin-1-yl)phenyl)-3-methylbenzamide], the IC50 in data set [1], in data set [2], in data set [3], in data set [4] and in [5] was greater than 1000 nM throughout. Besides, the F came to 26.3% in [6] (10 mpk) and 37.7% in data set [6] (30 mpk). Further, the Cmax stood at 359 nM in data set [6] (C57/B16, 10 mg/kg, 10 mpk) and 1280 nM in [6] (C57/B16, 30 mg/kg, 30 mpk). Also, the AUC(0-t) in [6] (10 mg/kg, 10 mpk) is 1.31 µM·h; in data set [6] (30 mg/kg, 30 mpk) it was 5.64 µM·h. The half-life in data set [6] (10 mg/kg, 10 mpk) is 3.1 h; in [6] (30 mg/kg, 30 mpk), 3.5 h. Further, in data set [7] (Dog liver S9), the half-life at 1 μM was greater than 2.42 h. The compound also came in with a microsomal CLint at 1 μM in data set [7] (Dog liver S9) of less than 4.8 µL/min/mg. Besides, the “% Remaining after 60 min incubation” value in data set [7] (Dog liver S9, 1 μM, 5 mM GSH, 37° C.) is reported as 92.5%. For the same compound, the “Relative Abundance (UV Peak Area % Total)” value in [8] is reported as 78.70%. The fraction unbound in [9], in data set [10] and in data set [11] was less than 0.07 throughout.

Values taken from patent US20230293539A1, “MLL1-WDR5 PROTEIN-PROTEIN INTERACTION INHIBITOR COMPOUNDS AND USES THEREOF” (HUYABIO International, LLC, priority 2022, published 2023).
